Measured values published in patent US10105357B2, “Indication of antibiotic drugs for preparation of cancer inhibition pharmaceutical composition” (LAUNX BIOMEDICAL CO., LTD., priority 2014, dated 2018).
Structures can show the parent of a compound that is named as a salt. Where two headings read alike, the source gives them in different places.

How the values were obtained:
Format in all cases: cell-based, human
[1] = test system: MCF7 (Mammary Gland, Adenocarcinoma); experiment: Cell viability analysis, breast cancer MCF7; details: for viability at 10 µM: Homo sapiens, MCF7, 72 h, read-out: cell viability (survival rate), MCF7, drug 10 μM, 72 hours, WST-1, OD450 nm
[2] = test system: HeLa (Cervix Adenocarcinoma); experiment: Cell viability analysis, cervical cancer HeLa; details: for viability at 10 µM: Homo sapiens, HeLa, 72 h, read-out: cell viability (survival rate), HeLa, drug 10 μM, 72 hours, WST-1, OD450 nm; for cell viability (survival rate), HeLa: drug 10 μM, 72 hours, WST-1, OD450 nm
[3] = test system: TSGH-8301 (Urinary Bladder Carcinoma); experiment: Cell viability analysis, bladder cancer TSGH-8301; details: for viability at 10 µM: Homo sapiens, 72 h, read-out: cell viability (survival rate), TSGH, drug 10 μM, 72 hours, WST-1, OD450 nm
[4] = test system: HL-60 (Acute Promyelocytic Leukemia); experiment: Cell viability analysis, leukemia HL-60; details: for viability at 10 µM: Homo sapiens, HL-60, 72 h, read-out: cell viability (survival rate), HL-60, drug 10 μM, 72 hours, WST-1, OD450 nm; for cell viability (survival rate), HL-60: drug 10 μM, 72 hours, WST-1, OD450 nm
[5] = test system: HI650 (Lung Adenocarcinoma); experiment: Cell viability analysis, lung cancer HI650; details: for viability at 10 µM: Homo sapiens, NCI-H1650, 72 h, read-out: cell viability (survival rate), H1650, drug 10 μM, 72 hours, WST-1, OD450 nm; for cell viability (survival rate), H1650: drug 10 μM, 72 hours, WST-1, OD450 nm
[6] = test system: A549 (Lung Adenocarcinoma); experiment: Cell viability analysis, lung cancer A549; details: for viability at 10 µM: Homo sapiens, A549, 72 h, read-out: cell viability (survival rate), A549, drug 10 μM, 72 hours, WST-1, OD450 nm
[7] = test system: AGS (Gastric Adenocarcinoma); experiment: Cell viability analysis, gastric cancer AGS; details: for viability at 10 µM: Homo sapiens, 72 h, read-out: cell viability (survival rate), AGS, drug 10 μM, 72 hours, WST-1, OD450 nm; for cell viability (survival rate), AGS: drug 10 μM, 72 hours, WST-1, OD450 nm
[8] = test system: HepG2 (Hepatocellular Carcinoma); experiment: Cell viability analysis, hepatic cancer HepG2; details: for viability at 10 µM: Homo sapiens, HepG2, 72 h, read-out: cell viability (survival rate), HepG2, drug 10 μM, 72 hours, WST-1, OD450 nm
cancer cell lines = experiment: Cell viability analysis (WST-1) on cancer cell lines; details: drug 10 μM, 72 hours; for inhibition effect on different cancer cell lines: WST-1, Table 3; for Inhibitory effect on cancer cell line: WST-1, OD450 nm, Table 2: drugs which do not have significant inhibitory effect
[9] = test system: LoVo (Colorectal Adenocarcinoma); experiment: Cell viability analysis, colon cancer LoVo; details: for viability at 10 µM: Homo sapiens, LoVo
[10] = test system: MKN-45 (Gastric Adenocarcinoma); experiment: Cell viability analysis, gastric cancer MKN-45; details: for viability at 10 µM: Homo sapiens, MKN-45, 72 h, read-out: cell viability (survival rate), MKN-45, drug 10 μM, 72 hours, WST-1, OD450 nm
[11] = test system: A375 (Amelanotic Melanoma); experiment: Cell viability analysis, skin cancer A375; details: for viability at 10 µM: Homo sapiens, A-375, 72 h, read-out: cell viability (survival rate), A375, drug 10 μM, 72 hours, WST-1, OD450 nm; for cell viability (survival rate), A375: drug 10 μM, 72 hours, WST-1, OD450 nm
[12] = test system: PC3 (p53−) (Prostate Adenocarcinoma); experiment: Cell viability analysis, prostate cancer PC3; details: 72 h
[13] = 72 h, read-out: cell viability (survival rate), LoVo, drug 10 μM, 72 hours, WST-1, OD450 nm
[14] = drug 10 μM, 72 hours, WST-1, OD450 nm

## Clc1ccc(C(Cn2ccnc2)OCc2csc3c(Cl)cccc23)c(Cl)c1 (stereo not drawn) [Sertaconazole nitrate]
[1]
  viability at 10 µM: 76.4%
[2]
  viability at 10 µM: 58.9%
[3]
  viability at 10 µM: 89.4%
[4]
  viability at 10 µM: 73.4%
[5]
  viability at 10 µM: 96.3%
[6]
  viability at 10 µM: 75.4%
[7]
  viability at 10 µM: 97.1%
[8]
  viability at 10 µM: 77.4%
Cancer cell lines
  inhibition effect on different cancer cell lines: significant inhibition effect
[9]; [13]
  viability at 10 µM: 94.9%
[10]
  viability at 10 µM: 69.5%
[11]
  viability at 10 µM: 52%

## CCN[C@@H]1C[C@H](N)[C@@H](O[C@H]2OC(CN)=CC[C@H]2N)[C@H](O)[C@H]1O[C@H]1OC[C@](C)(O)[C@H](NC)[C@H]1O.CCN[C@@H]1C[C@H](N)[C@@H](O[C@H]2OC(CN)=CC[C@H]2N)[C@H](O)[C@H]1O[C@H]1OC[C@](C)(O)[C@H](NC)[C@H]1O.O=S(=O)(O)O.O=S(=O)(O)O.O=S(=O)(O)O.O=S(=O)(O)O.O=S(=O)(O)O [Netilmicin Sulfate]
Cancer cell lines
  Inhibitory effect on cancer cell line: 0
  inhibition effect on different cancer cell lines: significant inhibition effect

## CC1(C)[C@H](C(=O)O)N2C(=O)C[C@H]2S1(=O)=O [Sulbactam]
Cancer cell lines
  inhibition effect on different cancer cell lines: significant inhibition effect
[9]; drug 10 μM, 72 hours, WST-1, OD450 nm, read-out: cell viability (survival rate), LoVo
  viability at 10 µM: 81.7%

## Teicoplanin
Cancer cell lines
  inhibition effect on different cancer cell lines: significant inhibition effect

## CCN1CCN(C(=O)N[C@@H](C(=O)N[C@@H]2C(=O)N3[C@@H]2SC(C)(C)[C@@H]3C(=O)O)c2ccccc2)C(=O)C1=O [Piperacillin Sodium]
[1]
  viability at 10 µM: 52.3%
[3]
  viability at 10 µM: 87.1%
[4]
  viability at 10 µM: 108%
[5]
  viability at 10 µM: 71.6%
[6]
  viability at 10 µM: 37.1%
[7]
  viability at 10 µM: 98.3%
[8]
  viability at 10 µM: 96.3%
Cancer cell lines
  inhibition effect on different cancer cell lines: significant inhibition effect
[9]; [13]
  viability at 10 µM: 97.4%
[10]
  viability at 10 µM: 87.1%
[11]
  viability at 10 µM: 67.9%

## Dabigatran [BIBR-1048 (Dabigatran)]
Cancer cell lines
  inhibition effect on different cancer cell lines: significant inhibition effect

## C[C@@H](O)[C@H]1C(=O)N2C(C(=O)O)=C(S[C@@H]3CN[C@H](CNS(N)(=O)=O)C3)[C@H](C)[C@H]12 [Doripenem Hydrate]
[1]
  viability at 10 µM: 99.8%
[2]
  viability at 10 µM: 122%
[3]
  viability at 10 µM: 79.9%
[4]
  viability at 10 µM: 91.2%
[5]
  viability at 10 µM: 78.5%
[6]
  viability at 10 µM: 70.9%
[7]
  viability at 10 µM: 66.5%
[8]
  viability at 10 µM: 106%
Cancer cell lines
  inhibition effect on different cancer cell lines: significant inhibition effect
[9]; [13]
  viability at 10 µM: 95.2%
[10]
  viability at 10 µM: 111%

## CCCCCCCCCCCCCCCC(=O)O[C@@H]1[C@@H](O)[C@@H](O)[C@@H]([C@H](NC(=O)[C@@H]2C[C@@H](CCC)CN2C)[C@H](C)Cl)O[C@@H]1SC.Cl [Clindamycin palmitate HCl]
Cancer cell lines
  inhibition effect on different cancer cell lines: significant inhibition effect

## N[C@@H]1CONC1=O [D-Cycloserine]
Cancer cell lines
  inhibition effect on different cancer cell lines: significant inhibition effect

## Cc1nccn1CC1CCc2c(c3ccccc3n2C)C1=O (stereo not drawn) [Ondansetron hydrochloride (Zofran), Ondansetron hydrochloride]
Cancer cell lines
  inhibition effect on different cancer cell lines: significant inhibition effect

## O=C(O)CCCC[C@@H]1SC[C@@H]2NC(=O)N[C@@H]21 [Biotin (Vitamin B7), Biotin]
[1]
  viability at 10 µM: 89.1%
[2]
  viability at 10 µM: 90.7%
[3]
  viability at 10 µM: 93.5%
[4]
  viability at 10 µM: 85.2%
[5]
  viability at 10 µM: 94.2%
[6]
  viability at 10 µM: 86.4%
[7]
  viability at 10 µM: 104%
Cancer cell lines
  inhibition effect on different cancer cell lines: significant inhibition effect
[9]; [13]
  viability at 10 µM: 99.2%
[10]
  viability at 10 µM: 85.1%
[11]
  viability at 10 µM: 71.3%

## CCn1cc(C(=O)O)c(=O)c2cc(F)c(N3CCN(C)CC3)cc21 [Pefloxacin mesylate]
Cancer cell lines
  inhibition effect on different cancer cell lines: significant inhibition effect

## Meclocycline Sulfosalicylate
Cancer cell lines
  inhibition effect on different cancer cell lines: significant inhibition effect

## CC1(C)S[C@@H]2[C@H](NC(=O)[C@H](N)c3ccccc3)C(=O)N2[C@H]1C(=O)O [Ampicillin sodium]
[1]; human, 72 h, 10 µM
  cell viability (survival rate), MCF7: 99.1
[2]
  viability at 10 µM: 75.2%
[3]
  viability at 10 µM: 72%
[5]
  viability at 10 µM: 53.5%
[6]; human, 72 h, 10 µM
  cell viability (survival rate), A549: 102.6
[7]
  viability at 10 µM: 105%
[8]
  viability at 10 µM: 76.1%
Cancer cell lines
  inhibition effect on different cancer cell lines: significant inhibition effect
[9]; [13]
  viability at 10 µM: 88.9%
[10]; human, 72 h, 10 µM
  cell viability (survival rate), MKN-45: 77.9
[12]; human, 10 µM
  cell viability (survival rate), PC3: 98.1
[11]
  viability at 10 µM: 68.9%

## CCn1cc(C(=O)O)c(=O)c2cc(F)c(N3CCNC(C)C3)c(F)c21 (stereo not drawn) [Lomefloxacin hydrochloride (Maxaquin), Lomefloxacin hydrochloride]
Cancer cell lines
  inhibition effect on different cancer cell lines: significant inhibition effect

## CO/N=C(\C(=O)N[C@@H]1C(=O)N2C(C(=O)O)=C(Cn3ccc(=N)n3CCO)CS[C@H]12)c1csc(N)n1.O=S(=O)(O)O [Cefoselis sulfate]
Cancer cell lines
  Inhibitory effect on cancer cell line: 0
  inhibition effect on different cancer cell lines: significant inhibition effect

## Cc1cccn2c(=O)c(-c3nnn[nH]3)cnc12 [Pemirolast (BMY 26517) potassium, Pemirolast potassium]
[1]
  viability at 10 µM: 83.2%
[2]
  viability at 10 µM: 88.4%
[3]
  viability at 10 µM: 93.7%
[5]
  viability at 10 µM: 81.8%
[6]
  viability at 10 µM: 82.9%
[7]
  viability at 10 µM: 69.4%
[8]
  viability at 10 µM: 82.1%
Cancer cell lines
  inhibition effect on different cancer cell lines: significant inhibition effect
[9]; [13]
  viability at 10 µM: 107%
[12]; Homo sapiens, read-out: cell viability (survival rate), PC3, drug 10 μM, 72 hours, WST-1, OD450 nm
  viability at 10 µM: 53.8%
[11]
  viability at 10 µM: 70.8%

## CN(C)CCC(c1ccc(Br)cc1)c1ccccn1 (stereo not drawn) [Brompheniramine]
[1]
  viability at 10 µM: 75.8%
[2]
  viability at 10 µM: 111%
[3]
  viability at 10 µM: 97.9%
[4]
  viability at 10 µM: 122%
[5]
  viability at 10 µM: 83%
[6]
  viability at 10 µM: 109%
[7]
  viability at 10 µM: 121%
[8]
  viability at 10 µM: 95.7%
Cancer cell lines
  inhibition effect on different cancer cell lines: significant inhibition effect
[9]; [13]
  viability at 10 µM: 98.9%
[10]
  viability at 10 µM: 85.8%

## CC(C)CN(C[C@@H](O)[C@H](Cc1ccccc1)NC(=O)O[C@H]1CO[C@H]2OCC[C@H]21)S(=O)(=O)c1ccc(N)cc1.CCO [Darunavir Ethanolate (Prezista), Darunavir Ethanolate]
Cancer cell lines
  inhibition effect on different cancer cell lines: significant inhibition effect

## CN(C/C=C/C#CC(C)(C)C)Cc1cccc2ccccc12 [Terbinafine hydrochloride (Lamisil), Terbinafine hydrochloride]
Cancer cell lines
  inhibition effect on different cancer cell lines: significant inhibition effect

## NNC(=O)c1ccncc1.Nc1ccc(C(=O)O)c(O)c1 [Pasiniazid]
Cancer cell lines
  inhibition effect on different cancer cell lines: significant inhibition effect

## Bismuth Subcitrate Potassium
Cancer cell lines
  Inhibitory effect on cancer cell line: 0
  inhibition effect on different cancer cell lines: significant inhibition effect

## Salbutamol sulfate [Salbutamol sulfate (Albuterol)]
[1]; [14]
  cell viability (survival rate), MCF7: 139.6
[2]
  cell viability (survival rate), HeLa: 99.9
[4]
  cell viability (survival rate), HL-60: 104.1
[5]
  cell viability (survival rate), H1650: 84.3
[6]; [14]
  cell viability (survival rate), A549: 94.6
[7]
  cell viability (survival rate), AGS: 91.8
Cancer cell lines
  Inhibitory effect on cancer cell line: 0
  inhibition effect on different cancer cell lines: significant inhibition effect
[9]; [14]
  cell viability (survival rate), LoVo: 97.1
[10]; [14]
  cell viability (survival rate), MKN-45: 71.2
[11]
  cell viability (survival rate), A375: 98.0

## Colistin Sulfate
[2]
  cell viability (survival rate), HeLa: 84.3
[3]; [14]
  cell viability (survival rate), TSGH: 36.2
[4]
  cell viability (survival rate), HL-60: 108.9
[5]
  cell viability (survival rate), H1650: 62.2
[6]; [14]
  cell viability (survival rate), A549: 97.6
[7]
  cell viability (survival rate), AGS: 26.1
[8]; [14]
  cell viability (survival rate), HepG2: 77.7
Cancer cell lines
  inhibition effect on different cancer cell lines: significant inhibition effect
[9]; [14]
  cell viability (survival rate), LoVo: 92.0
[11]
  cell viability (survival rate), A375: 36.1

## NC(=O)c1cnccn1 [Pyrazinamide (Pyrazinoic acid amide), Pyrazinamide]
Cancer cell lines
  inhibition effect on different cancer cell lines: significant inhibition effect
